Data set [1] deals with Mycobacterium tuberculosis. The data set is described as follows: microbe, parasite or virus in culture. As to conditions: H37Rv.
Description: Antibacterial activity against Mycobacterium tuberculosis H37Rv assessed as inhibition of bacterial growth
Data set [2] has as its system Mycobacterium tuberculosis. The data set is classed as functional. The settings on record: H37Rv, time 6 day.
Data set [3] relates to Mycobacterium tuberculosis. The data set is classed as functional. As to conditions: dose 100 mg/kg; route po; time 4 weeks.
Data set [4] has as its system Mycobacterium tuberculosis. The data set is described as follows: Antibacterial activity against Mycobacterium tuberculosis in acute Mtb infection BALB/c mouse model assessed as reduction in log10 CFU in lungs at 100 mg/kg for 3 weeks. Format: functional.
The test system of data set [5] is Mycobacterium tuberculosis. The data set is described as follows: Antibacterial activity against Mycobacterium tuberculosis Erdman in acute Mtb infection BALB/c mouse model assessed as reduction in log10 CFU in lungs at 200 mg/kg, po daily via gavage for 3 weeks. The data set is classed as functional.
Data set [6] relates to Mycobacterium tuberculosis. The experiment in a line: Antibacterial activity against non-replicating Mycobacterium tuberculosis assessed as inhibition of bacterial growth. Format: functional.
Data set [7] relates to Mycobacterium tuberculosis. Format: functional. As to conditions: H37Rv, 168 h, time 7 day.
The nature of data set [8]: Cytotoxicity against human MRC5 cells. Format: toxicity, cell-based.
A short description of data set [9]: Aqueous solubility of compound in PBS at pH 7.4 incubated for 1 hr. Format: physicochemical.
Data set [10] relates to Mycobacterium tuberculosis. The data set is classed as functional. The settings on record: H37Rv.
Another data set deals with HepG2. The experiment in a line: Cytotoxicity against human HepG2 cells. The data set is classed as functional.
Data set [11] in a line: Oral bioavailability in mouse. Format: ADME, organism-based. The settings on record: in vivo.
Data set [12] can be described thus: Solubility of the compound. The data set is classed as physicochemical.
In data set [13] the test system is Mycobacterium tuberculosis. The data set is classed as functional. As to conditions: H37Rv, 336 h, time 14 day.
Data set [14] relates to Mycobacterium tuberculosis. The data set is classed as functional. As to conditions: H37Rv, 120 h, time 5 day.
The test system of data set [15] is Mycobacterium tuberculosis. The experiment in a line: Bactericidal activity against Mycobacterium tuberculosis H37Rv in chronic Mtb infection BALB/c mouse model assessed as log10 CFU kill at 20 mg/kg, po qd via gavage measured after 4 weeks. Format: functional.
Data set [16] has as its system Mycobacterium tuberculosis. The data set is described as follows: Antibacterial activity against Mycobacterium tuberculosis in acute Mtb infection mouse model assessed as reduction in log10 CFU at 200 mg/kg for 3 weeks. The data set is classed as functional.
The subject of data set [17] is Mycobacterium tuberculosis. Format: functional. As to conditions: H37Rv, time 14-21 day.
The subject of data set [18] is Mycobacterium tuberculosis. The data set is described as follows: Antibacterial activity against Mycobacterium tuberculosis in chronic Mtb infection Wistar rat model assessed as reduction in log10 CFU in lungs at 100 mg/kg, po. The data set is classed as functional.

Values after ≈ are worked out from the molar mass of the structure shown. Bounds are passed on as bounds.

Compound `CC(Nc1nc(N2CCCCC2)nc2ccccc12)c1ccccc1` (centres undefined) showed an MIC80 in [1] of 25 µM (≈ 8.31 µg/mL).

As to `CNc1nc(SC)nc2ccccc12`, in [2], the MIC was 0.13 µM (≈ 0.0267 µg/mL).

Take `O=C(C1CCN(c2nnc(-n3cccc3)s2)CC1)N1CCC(Cc2ccccc2)CC1`: the MIC90 in data set [1] amounted to 4 µM (≈ 1.74 µg/mL).

On to `c1cc2c(s1)CCOC21CCN(Cc2ccc3c(c2)OCCO3)CC1`, for which the MIC90 in data set [1] worked out at 0.3 µM (≈ 0.107 µg/mL).

On to `CC1(C)CCC(NC(=O)c2cc3c(Cl)cc(Cl)cc3[nH]2)CC1`, for which, in data set [1], the MIC90 was determined as 0.02 µM (≈ 0.00679 µg/mL). The compound also returned an Activity in [3] of 3.1 log10CFU.

As to `CCOC(=O)NC(=O)c1ccsc1NC(=O)c1nc2ccccc2s1`, in data set [4], the Activity is on record as 2.9 log10CFU. The compound further showed an MIC90 in data set [1] of 0.23 µM (≈ 0.0863 µg/mL).

In [1], `Fc1ccc(-c2nnc3sc(COc4ccccc4)nn23)cc1` had an MIC of 25 µM (≈ 8.16 µg/mL).

What is called CC50 is the concentration giving 50% cytotoxicity. Take `O=C(N/N=C/c1cccc(Oc2no[n+]([O-])c2S(=O)(=O)c2ccccc2)c1)c1ccncc1`: in [5], the Activity is reported as greater than 6 log10CFU. In addition, in data set [6], the MIC90 was 6.7 µM (≈ 3.12 µg/mL). The MIC in [7] amounted to 1.6 µM (≈ 0.745 µg/mL). For the same compound, in data set [8], the CC50 stood at 30 µM.

On to `O=C(N/N=C/c1ccc(Oc2no[n+]([O-])c2S(=O)(=O)c2ccccc2)cc1)c1ccncc1`, for which the Activity in data set [5] was greater than 6 log10CFU. Also, the MIC90 in data set [6] was 9.8 µM (≈ 4.56 µg/mL). Besides, the MIC in data set [7] was found to be 1 µM (≈ 0.465 µg/mL). The 50% cytotoxic concentration (CC50) in data set [8] amounted to 43 µM.

Consider `CCOC(=O)c1c(-c2ccccc2)oc2ccc(O)c(CN3CCC(C)CC3)c12`, for which the MIC90 in data set [1] was found to be 2.5 µM (≈ 0.984 µg/mL).

`O=c1c(NCc2ccccn2)c(-c2ccc(C(F)(F)F)cc2)c1=O`: the MIC80 in data set [1] is 6.2 µM (≈ 2.06 µg/mL).

Usually solubility stands for the dissolved amount per volume that the medium holds. Compound `Cc1ccn(C(C)c2nnc(Nc3ccn(Cc4c(F)cccc4Cl)n3)s2)n1` (centres undefined) showed a solubility at 1 h in [9] of 9 µM (≈ 3.76 µg/mL). The MIC90 in [10] amounted to 1 µM (≈ 0.418 µg/mL).

For `N=C(N)NC(=O)c1nc(-c2cc3ccccc3o2)c(N)nc1N`, the MIC in [1] stood at 4 µM (≈ 1.25 µg/mL).

As for `O=S1(=O)C[C@H](O)[C@@H](N2CCN(c3ccccc3Cl)CC2)C1`, the MIC in data set [1] amounted to 0.76 µM (≈ 0.251 µg/mL).

Turning to `FC(F)(F)c1ccc(Oc2ccc(Nc3ncnc4ccccc34)cc2)cc1`, in data set [1], the MIC50 was 25 µM (≈ 9.53 µg/mL).

Broadly, the bioavailability is the share of a dose that reaches the circulation, judged against a reference dose that is usually intravenous. In data set [1], `FC(F)(F)Oc1ccc(Oc2ccc(CN3CCC4(CC3)OCCc3sccc34)cc2)cc1` displayed an MIC90 of 0.06 µM (≈ 0.0285 µg/mL). This compound also came in with a CC50 in the data set with HepG2 of 36 µM. The compound further returned a bioavailability in data set [11] of 55%. This compound also gave a solubility in data set [12] of 6 µM (≈ 2.85 µg/mL).

In turn, `O=C(Nc1ccc(N2CCN(c3ccccn3)CC2)c(F)c1)c1ccc2no[n+]([O-])c2c1` returned an MIC90 in data set [13] of 0.09 µM (≈ 0.0391 µg/mL).

Compound `O=C(Nc1ccc(N2CCSCC2)c(F)c1)c1ccc2no[n+]([O-])c2c1` showed an MIC90 in data set [13] of 0.7 µM (≈ 0.262 µg/mL).

For the compound `O=S(=O)(NCCO)c1ccc(-c2nnn(Cc3ccc(F)cn3)n2)cc1`, the MIC in [1] turned out to be 0.07 µM (≈ 0.0265 µg/mL).

Compound `CS(=O)(=O)N1N=Cc2ccc(Oc3ccc(C#N)cc3)cc2B1O` gave an MIC90 in [14] of 36 µM (≈ 12.3 µg/mL).

The compound `COc1ncc(-c2ccc(Cl)cc2)cc1[C@@H](c1ccccc1)[C@@](O)(CCN(C)C)c1cccc2ccccc12` returned an MIC90 in data set [1] of 0.13 µM (≈ 0.0698 µg/mL).

Turning to `Cc1cc(Nc2ncc(Cl)c(Nc3ccccc3S(=O)(=O)C(C)C)n2)c(OC(C)C)cc1C1CCNCC1` [CERITINIB], the MIC90 in [1] worked out at 9 µM (≈ 5.02 µg/mL).

Turning to `CC(C)/N=c1\cc2n(-c3ccc(Cl)cc3)c3ccccc3nc-2cc1Nc1ccc(Cl)cc1` [CLOFAZIMINE], the Activity in data set [15] was 2.2 log10CFU.

In the case of `N[C@@H]1CONC1=O` [CYCLOSERINE], the MIC in data set [1] stood at 157 µM (≈ 16 µg/mL).

For `CCc1cc(C(N)=S)ccn1` [ETHIONAMIDE], in [1], the MIC came out at 12 µM (≈ 1.99 µg/mL).

`C[C@@H](O)[C@H]1C(=O)N2C(C(=O)O)=C([C@H]3CCCO3)S[C@H]12` [FAROPENEM] displayed an MIC90 in [1] of 1.8 µM (≈ 0.514 µg/mL). The Activity in [16] worked out at 2.4 log10CFU.

Consider `CC(=O)NC[C@H]1CN(c2ccc(N3CCOCC3)c(F)c2)C(=O)O1` [LINEZOLID], for which the MIC in data set [1] and in data set [17] was 1.5 µM (≈ 0.506 µg/mL) each time.

Consider `CC(C)=CCC/C(C)=C/CNCCNC1C2CC3CC(C2)CC1C3` (centres undefined) [SQ109], for which, in data set [1], the MIC was found to be 1.2 µM (≈ 0.397 µg/mL).

As for `CC(=O)NC[C@H]1CN(c2ccc(N3CCSCC3)c(F)c2)C(=O)O1` [SUTEZOLID], the MIC80 in data set [1] was 0.28 µM (≈ 0.099 µg/mL).

For `COc1ncnc(Cn2cc(C(=O)NCCO)c3ncc(C)cc32)c1C` [TBA-7371], the Activity in [18] amounted to 1 log10CFU.
